Results reported in patent publication US7691575B2, “Immunomodulatory compositions” (Academia Sinica, priority 2005, dated 2010).

System: human IFN γ promoter
Assay: IFN γ promoter reporter assay (dual luciferase, pIFN γ-Luc/pRL-TK) in transfected Jurkat cells
Format: cell-based
Protocol: Jurkat cells were transfected with pIFN γ-Luc and pRL-TK, or pIL-2 and pRL-TK, plasmid DNA constructs using electroporation and then treated with different plant crude extracts, which were prepared using boiling water. The fold induction was expressed in arbitrary units as the ratio of firefly luciferase activity (encoded by pIFN γ-Luc) to that of Renilla luciferase (pRL-TK).
A 615 base pair (bp) DNA fragment containing the human IFN γ promoter region from bp −487 to +128 (SEQ ID NO:1) was amplifed by polymerase chain reaction (PCR) using the specific primers (5′-[…]-3′ (SEQ ID NO:3) and 5′-[…]-3′ (SEQ ID NO:4))and human genomic DNA, isolated from blood, as a template. […]
Firefly and Renilla luciferase activities were measured in cell lysates made from transfected T-cells that were exposed to a plant extract or phytocompound, or underwent negative control treatment. […] The protein concentration in each lysate was determined using a Bradford reagent protein assay (Bio-Rad, Calif.).
Samples of ten micrograms of cell lysate protein were subjected to a dual luciferase reporter assay according to the manufacturer's instructions (Promega, Wis.). Firefly and Renilla luciferase activities were determined in each sample with a luminometer. […] The IFN γ or IL-2 promoter activity for each sample was calculated as a ratio of firefly luciferase to Renilla luciferase-dependent luminescence.

| SMILES | IFN γ promoter activity (100 μg/mL, relative to untreated cells, p<0.001) | IFN γ promoter activity (concentration not given) |
| --- | --- | --- |
| COc1ccc(-c2oc3cc(O[C@@H]4O[C@H](CO)[C@@H](O)[C@H](O)[C@H]4O)c(OC)c(O)c3c(=O)c2OC)cc1O [Centaurein, centaurein] | highly significant increase |  |
| O=C(/C=C/c1ccc(O)c(O)c1)O[C@@H]1[C@H](O)C[C@@](O)(C(=O)O)C[C@H]1OC(=O)/C=C/c1ccc(O)c(O)c1 [4,5-di-O-caffeoylquinic acid] |  | did not induce a significant increase |
